Test results from ChEMBL document CHEMBL1201862, “PubChem BioAssay data set” (2004).
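In this assay, cells in 96-well plates receive the compound at five concentrations for 48 hours. Endpoints are linearly interpolated between the surrounding concentrations. At the GI50, growth is halved.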 The source made the active and inactive calls. Rule as the data show it: active = GI50 up to about 1.1 µM and inactive = higher.

Experiments:
Assay in all cases: inhibition of tumour cell growth, NCI panel, 48 h
A549 = system: A549
CCRF-CEM = system: CCRF-CEM
COLO 205 = system: COLO 205
HOP-92 = system: HOP-92
M14 = system: M14
MOLT-4 = system: MOLT-4
NCI-H23 = system: NCI-H23
NCI-H522 = system: NCI-H522
OVCAR-3 = system: OVCAR-3
OVCAR-8 = system: OVCAR-8
RXF 393 = system: RXF 393
SF-295 = system: SF-295
SK-MEL-28 = system: SK-MEL-28
SK-OV-3 = system: SK-OV-3
SNB-19 = system: SNB-19
UACC-257 = system: UACC-257
UO-31 = system: UO-31

Row | SMILES | GI50 (A549) | GI50 (CCRF-CEM) | GI50 (COLO 205) | GI50 (HOP-92) | GI50 (M14) | GI50 (MOLT-4) | GI50 (NCI-H23) | GI50 (NCI-H522) | GI50 (OVCAR-3) | GI50 (OVCAR-8) | GI50 (RXF 393) | GI50 (SF-295) | GI50 (SK-MEL-28) | GI50 (SK-OV-3) | GI50 (SNB-19) | GI50 (UACC-257) | GI50 (UO-31)
1 | O=C1OC(c2ccccc2)=N/C1=C/NC(CS)C(=O)O (configuration not stated) | > 100 µM (inactive) | > 100 µM (inactive) | > 100 µM (inactive) | > 100 µM (inactive) | > 100 µM (inactive) | > 100 µM (inactive) | > 100 µM (inactive) | 55.8 µM (inactive) | > 100 µM (inactive) | > 100 µM (inactive) | > 100 µM (inactive) | > 100 µM (inactive) | > 100 µM (inactive) | > 100 µM (inactive) | > 100 µM (inactive) | > 100 µM (inactive) | > 100 µM (inactive)
2 | CC(C)(C)c1cc(C2c3cc4c(cc3OC(O)(CO)C2C(=O)O)OCO4)cc(C(C)(C)C)c1O.CC(C)(C)c1cc(C2c3cc4c(cc3OC3(O)COC(=O)C23)OCO4)cc(C(C)(C)C)c1O (configuration not stated) | 18.7 µM (inactive) | 3.58 µM (inactive) | 20.4 µM (inactive) | 9.82 µM (inactive) | 14.7 µM (inactive) | 3.52 µM (inactive) | 9.55 µM (inactive) | – | 5.36 µM (inactive) | 10 µM (inactive) | 11.9 µM (inactive) | 15.7 µM (inactive) | 11.3 µM (inactive) | 27.3 µM (inactive) | 12.9 µM (inactive) | 13.2 µM (inactive) | 13.6 µM (inactive)
3 | C/C(=N\NC(N)=S)c1cc(C)c(C)cc1C | 45.2 µM (inactive) | 29.9 µM (inactive) | 27.7 µM (inactive) | > 100 µM (inactive) | 37.2 µM (inactive) | 20.2 µM (inactive) | 41.7 µM (inactive) | – | 24.4 µM (inactive) | > 100 µM (inactive) | 29 µM (inactive) | 47 µM (inactive) | 86.7 µM (inactive) | > 100 µM (inactive) | – | 90.8 µM (inactive) | 56.8 µM (inactive)
4 | O=C(NC1C(=O)NNC1c1ccccc1Cl)c1ccccc1 (configuration not stated) | > 100 µM (inactive) | > 100 µM (inactive) | > 100 µM (inactive) | > 100 µM (inactive) | > 100 µM (inactive) | 64.4 µM (inactive) | > 100 µM (inactive) | 91.4 µM (inactive) | > 100 µM (inactive) | > 100 µM (inactive) | > 100 µM (inactive) | > 100 µM (inactive) | > 100 µM (inactive) | > 100 µM (inactive) | > 100 µM (inactive) | > 100 µM (inactive) | > 100 µM (inactive)
5 | O=C1C(=O)N(C(=O)c2ccc(Cl)c(Cl)c2)c2ccc(Cl)cc21 | > 100 µM (inactive) | 38.8 µM (inactive) | > 100 µM (inactive) | – | > 100 µM (inactive) | 43.9 µM (inactive) | > 100 µM (inactive) | – | 56.6 µM (inactive) | > 100 µM (inactive) | > 100 µM (inactive) | > 100 µM (inactive) | > 100 µM (inactive) | > 100 µM (inactive) | > 100 µM (inactive) | – | > 100 µM (inactive)
6 | OC(CC1SCCCS1)c1ccccc1 (configuration not stated) | > 100 µM (inactive) | > 100 µM (inactive) | > 100 µM (inactive) | – | > 100 µM (inactive) | > 100 µM (inactive) | > 100 µM (inactive) | 61.7 µM (inactive) | > 100 µM (inactive) | > 100 µM (inactive) | > 100 µM (inactive) | > 100 µM (inactive) | – | > 100 µM (inactive) | > 100 µM (inactive) | > 100 µM (inactive) | > 100 µM (inactive)
7 | O=[PH](O)c1cc2ccccc2c2ccccc12 | > 100 µM (inactive) | > 100 µM (inactive) | > 100 µM (inactive) | – | > 100 µM (inactive) | > 100 µM (inactive) | > 100 µM (inactive) | > 100 µM (inactive) | > 100 µM (inactive) | > 100 µM (inactive) | > 100 µM (inactive) | > 100 µM (inactive) | > 100 µM (inactive) | > 100 µM (inactive) | > 100 µM (inactive) | – | –
8 | C=C1CCCC2[C@](C)(CC3=C(O)C(=O)C=C(OC)C3=O)[C@@H](C)CC[C@]12C (some centres not stated) | 2.86 µM (inactive) | 2.36 µM (inactive) | 7.35 µM (inactive) | – | 1.81 µM (inactive) | – | 3.05 µM (inactive) | 6.82 µM (inactive) | 3.53 µM (inactive) | 4.41 µM (inactive) | 2.73 µM (inactive) | 2.51 µM (inactive) | 3.99 µM (inactive) | 12.6 µM (inactive) | – | 3.3 µM (inactive) | –
9 | COC(=O)c1c(C)cc2c(c1O)C1(O)C(=O)c3cc4c(c(O)c3C(=O)C1(OC)C(O)C2)C(=O)C=C(NC1OC(C)C(OC)C(O)C1OC)C4=O (configuration not stated) | 0.0619 µM (active) | 0.0189 µM (active) | 0.0532 µM (active) | 0.26 µM (active) | 0.119 µM (active) | 0.0208 µM (active) | 0.0152 µM (active) | 0.0552 µM (active) | 0.11 µM (active) | 0.0695 µM (active) | 0.0161 µM (active) | 0.0331 µM (active) | – | 0.298 µM (active) | 0.159 µM (active) | 0.017 µM (active) | 0.14 µM (active)
10 | [N-]=[N+]=NC1(Cc2ccccc2)C(=O)Nc2ccccc2C1=O (configuration not stated) | > 100 µM (inactive) | > 100 µM (inactive) | > 100 µM (inactive) | > 100 µM (inactive) | > 100 µM (inactive) | > 100 µM (inactive) | > 100 µM (inactive) | 87.1 µM (inactive) | 91.6 µM (inactive) | > 100 µM (inactive) | – | > 100 µM (inactive) | > 100 µM (inactive) | > 100 µM (inactive) | > 100 µM (inactive) | > 100 µM (inactive) | 39.6 µM (inactive)
11 | C=C1C2CC(OC(C)=O)C3(C)C(c4ccoc4)OC(=O)[C@@H](O)[C@]13OC1C[C@H](OC(C)=O)C(C)(C)[C@H](CC(=O)OC)[C@]12C (some centres not stated) | > 100 µM (inactive) | > 100 µM (inactive) | > 100 µM (inactive) | 30.3 µM (inactive) | > 100 µM (inactive) | 70.6 µM (inactive) | > 100 µM (inactive) | – | > 100 µM (inactive) | > 100 µM (inactive) | – | > 100 µM (inactive) | > 100 µM (inactive) | > 100 µM (inactive) | > 100 µM (inactive) | – | > 100 µM (inactive)
12 | COc1cc(Nc2nc3cc(C(F)(F)F)ccc3nc2C)cc(OC)c1OC | > 10 µM (inactive) | 5.74 µM (inactive) | 12.1 µM (inactive) | 0.246 µM (active) | 7.6 µM (inactive) | 6.95 µM (inactive) | 10.7 µM (inactive) | 12.3 µM (inactive) | 16.1 µM (inactive) | 11 µM (inactive) | 5.46 µM (inactive) | 1.97 µM (inactive) | 12.5 µM (inactive) | 14.4 µM (inactive) | – | 6.37 µM (inactive) | 4.22 µM (inactive)
13 | COc1ccc(/C=C/C(=O)c2cc(C(=O)O)c(OC)cc2OC)cc1OC | > 100 µM (inactive) | > 100 µM (inactive) | > 100 µM (inactive) | > 100 µM (inactive) | > 100 µM (inactive) | > 100 µM (inactive) | > 100 µM (inactive) | > 100 µM (inactive) | – | > 100 µM (inactive) | – | > 100 µM (inactive) | > 100 µM (inactive) | – | > 100 µM (inactive) | > 100 µM (inactive) | –
14 | Cn1c2c(c3ccccc31)CCN(CCCN1CCN(c3ccccc3)CC1)C2=O | 23.6 µM (inactive) | 28.2 µM (inactive) | 17.6 µM (inactive) | 15.7 µM (inactive) | 16.4 µM (inactive) | 13.3 µM (inactive) | 20.5 µM (inactive) | 14.3 µM (inactive) | – | 21.6 µM (inactive) | 15.8 µM (inactive) | 23.1 µM (inactive) | 18.1 µM (inactive) | 19.9 µM (inactive) | – | – | 14.7 µM (inactive)
15 | O=[N+]([O-])c1ccc(CNC2=NNS(=O)(=O)c3ccccc32)cc1 | > 100 µM (inactive) | 19.5 µM (inactive) | > 100 µM (inactive) | > 100 µM (inactive) | > 100 µM (inactive) | 22.3 µM (inactive) | – | – | > 100 µM (inactive) | > 100 µM (inactive) | > 100 µM (inactive) | > 100 µM (inactive) | – | – | > 100 µM (inactive) | > 100 µM (inactive) | > 100 µM (inactive)
16 | CCN(CC)CC1CCCCN1CC(=O)N1CC(C)C(=O)Nc2ccccc21 (configuration not stated) | > 100 µM (inactive) | > 100 µM (inactive) | > 100 µM (inactive) | > 100 µM (inactive) | > 100 µM (inactive) | > 100 µM (inactive) | > 100 µM (inactive) | – | > 100 µM (inactive) | – | – | > 100 µM (inactive) | > 100 µM (inactive) | > 100 µM (inactive) | > 100 µM (inactive) | > 100 µM (inactive) | > 100 µM (inactive)
17 | Cc1oc2c(C)c3oc(=O)cc(C)c3cc2c1CN | 40.3 µM (inactive) | 41.9 µM (inactive) | 33.1 µM (inactive) | – | 38.5 µM (inactive) | 24.7 µM (inactive) | 45.8 µM (inactive) | 42.4 µM (inactive) | 61.4 µM (inactive) | 40.6 µM (inactive) | 15.9 µM (inactive) | 38 µM (inactive) | 71 µM (inactive) | 23.7 µM (inactive) | 41.5 µM (inactive) | 41.3 µM (inactive) | 30.1 µM (inactive)
18 | O=C(Nc1ccc([N+](=O)[O-])cc1C(=O)O)c1ccc([N+](=O)[O-])cc1 | 59.6 µM (inactive) | 11.4 µM (inactive) | > 10 µM (inactive) | 10.8 µM (inactive) | 36.2 µM (inactive) | 14.8 µM (inactive) | – | – | 59.6 µM (inactive) | 32.1 µM (inactive) | – | > 100 µM (inactive) | 31.1 µM (inactive) | 79.3 µM (inactive) | 36.6 µM (inactive) | 40 µM (inactive) | 34.3 µM (inactive)
